Results published in a melting point compilation (Tetko et al.; mined from patent text by program, amines drawn as free bases though some values may be those of a salt).

| melting point [°C] | SMILES |
| --- | --- |
| 44 | CCCCCCCOc1ccc(C2CCC(=O)O2)cc1 (single isomer, unassigned) |
| 51 to 53 | CCC#CN1CCC(O)(Cc2ccccc2)CC1 |
| 127 | CCOC(=O)c1ccc(N)cc1-c1ccc(OC)c(OC)c1 |
| 159 | COc1cc2c(cc1O)OCC(c1ccc(O)cc1)C2 (stereo unspecified) |
| 129 | COc1ccc(C2CCCCC2)cc1-c1csc(NC(=O)C2CCN(C(=O)c3cnccn3)CC2)n1 |
| 187 to 190 | CN1C(=O)C2(COc3cc4c(cc32)CCO4)c2ccccc21 (stereo unspecified) |
| 84 to 87 | Nc1nn(-c2ccccc2)c(N)c1CN1CCN(c2cccc3c2OCCO3)CC1 |
| 170 to 171 | CC1=CC(O)C(OC(=O)c2ccc(N)cc2)C(C)(C)CC1=O (stereo unspecified) |
| 153 to 155 | NC(=O)c1cc2cc(OCC3CO3)ccc2o1 (stereo unspecified) |
| 159 to 160 | CCCCCCC(C(C)O)n1cnc(C(N)=O)c1N (stereo unspecified) |
| 155 | O=C1CCc2cc(Cl)c(Cl)cc21 |
| 191 to 194 | CN(C)C=CC(=O)c1c(-c2ccc(C(C)(C)NC(=O)OC(C)(C)C)cc2)ccc2nn(C3CCCCO3)cc12 (stereo unspecified) |
| 99 to 100 | CC=C(c1ccc(OC)cc1)c1ccc(OC)cc1 |
| 146 to 149 | CC(C)CC(SC1CCCC1)c1c(O)cc(-c2ccccc2)oc1=O (stereo unspecified) |
| 182 to 183 | C[C@@H](NC(=O)c1csc(-c2cccnc2)n1)[C@](O)(Cn1cncn1)c1ccc(F)cc1F |
| 215 to 216 | Cc1[nH]cnc1CN1CCc2c(c3cccc4c3n2CCCC4)C1=O |
| 83 to 84 | CN1CCCC1=Cc1ccc(Br)cc1 |
| 140 to 141 | CCOC(=O)C1Cc2cc(OC)c(OC)cc2C1=O (stereo unspecified) |
| 208 to 210 | Cn1cc(S(=O)(=O)NCc2ccccc2)c(=O)c2ccc(Cl)cc21 |
| 204 to 206 | CC(=O)OCC1=C(C(=O)O)N2C(=O)C(=NSc3ccc(C)cc3)C2SC1 (stereo unspecified) |
| 214 to 216 | CC1(C(=O)c2c[nH]c3ncc(-c4ccc(N5CCNCC5)cc4)nc23)CCCCC1 |
| 158 to 159 | ClCCCCOc1ccc(OCCCCCl)cc1 |
| 88 to 90 | CCCCCCCCCCCCCCCCn1c(-c2ccc(Cl)c(N)c2)nnc1-c1ccc(Cl)c(N)c1 |
| 158 | COC(=O)c1ccc(Cl)c(CN2CCSC2=NC#N)c1Cl |
| 178 | CCCCn1ccc(-c2ccc3c(c2)OCCN3[C@H]2CC[C@H](O)CC2)c(Cl)c1=O |

| melting point [°C] | SMILES |
| --- | --- |
| 119 to 121 | CC(C)CCc1c(-c2ccc(S(C)(=O)=O)c(F)c2)cnn(-c2ccc(F)c(F)c2)c1=O |
| 181 to 183 | CC(C)(C)CC(C)(C)c1cc(-n2nc3ccc(-c4ccc(-c5ccccc5)cc4)cc3n2)c(O)c(C(C)(C)c2ccccc2)c1 |
| 124 to 127 | S=C(NCc1ccc(Cl)cc1Cl)N1CCc2c([nH]c3ccccc23)C1c1ccc2c(c1)OCO2 (stereo unspecified) |
| > 300 | CCOC(=O)c1cc2c(=O)c3cc(C(C)=O)ccc3oc2nc1N |
| 145 | CCOC(=O)c1cc(NCc2ccccc2)c(Nc2ccc(OC)cc2)c(S(N)(=O)=O)c1 |
| 159 to 163 | CCCC(=O)c1cnc(C(CC2CCCC2)c2ccc(S(C)(=O)=O)cc2)[nH]1 (stereo unspecified) |
| 175 to 176 | CCC(=O)Nc1nc(C)c(C(=O)NCc2ccccc2)s1 |
| 152 to 154 | O=C(NOCC(O)CO)c1cc(Cl)c(F)c(F)c1Nc1ccc(I)cc1Cl (stereo unspecified) |
| 242 | NC(N)=Nc1nc(-c2cccc(N)n2)cs1 |
| 225 to 226 | C[C@H](NC(=O)c1c[nH]c2ncc(-c3ccc(C(=O)NCc4ccccc4)s3)nc12)C(C)(C)C |
| 69 to 70 | CCC1Nc2cc(F)c(F)c(F)c2-n2cccc21 (stereo unspecified) |
| 209 to 214 | Cc1nc(-c2ccccc2)cc(-c2cccc([N+](=O)[O-])c2)c1CO |
| > 250 | NS(=O)(=O)c1ccc(NN=C2C(=O)Nc3cccc(Oc4ccccc4)c32)cc1 |
| 92 to 93 | COC(=O)c1cccc([N+](=O)[O-])c1N |
| 230 to 232 | COc1cccc(C23CCCC=C2C(=O)NC(=O)C3)c1 (stereo unspecified) |
| 218 to 219 | Cc1nc2c(N)nc3ccccc3c2n1CCCCC(=O)N1CCOCC1 |
| 199 to 205 | CCCCn1c(N)c(N=O)c(=O)n(CCCC)c1=O |
| 55 to 56 | CCCCCCCC(O)CC(=O)O (stereo unspecified) |
| 144 to 146 | CC(C)(C)OC(=O)N1CCC(Oc2ccc(Cc3cc4cc(C#N)ccc4o3)cc2)CC1 |
| 123 to 125 | CC1C(=O)N(c2ccc(Cc3ccccc3)cc2)C(=S)N1c1ccccc1 (stereo unspecified) |
| 64 to 65 | OC/C(=C/c1ccccc1)c1cccs1 |
| 142 to 144 | COc1cc(I)nc(N)n1 |
| 137 to 138 | COc1cc(N)c(Cl)cc1C(=O)NCC1CCN(CCCCCCC(=O)c2ccc(Cl)cc2)CC1 |
| 151 | O=C(NC[C@@H](C(=O)NO)N1CCOCC1)c1ccc(OCc2ccnc(-c3cccc(C(F)(F)F)c3)c2)cc1 |
| 44 | COC(C)(C)c1cc(C(C)(C)OC)cc(C(C)(C)OC)c1 |

| melting point [°C] | SMILES |
| --- | --- |
| 144 to 146 | CNc1cc(NC)cc(C(=O)CS(C)(=O)=O)c1 |
| 225 to 227 | COCCOc1cc(OC)c2c(=O)[nH]c(-c3ccc(N4C[C@@H](C)N(C(C)=O)[C@@H](C)C4)cc3)nc2c1 |
| 110 to 111 | O=C(c1ccccc1)c1cc(Cl)cc(I)c1O |
| 305 | Cc1nc(NC(=O)c2cnn3c(C(F)(F)F)cc(-c4ccc(Cl)cc4)nc23)sc1S(N)(=O)=O |
| 192 to 194 | CN(C)CCNC(=O)c1cn(C)c(=O)c2cc3ccccc3nc12 |
| 81 to 82 | COc1ccc(F)c(C)c1NC(=O)OC(C)(C)C |
| 125 to 128 | CCCCc1nn(-c2cc(NC(C)=O)ccc2Cl)c(=O)n1Cc1ccc(-c2cc(CCC)ccc2S(=O)(=O)NC(C)(C)C)cc1F |
| 308 to 312 | Cn1cc(C(=O)O)c(=O)c2oc3ccccc3c(=O)c21 |
| 67 to 70 | COc1cc(OC)c(N=C=O)c(OC)c1 |
| 151 to 154 | CCN(c1nc(C)cc(C)n1)c1ccc(CC=NOC)cc1S(C)(=O)=O |
| 94 to 97.5 | CCCc1c(OCCCCCOc2cc3c(cc2C(C)=O)CC[C@@H](C(=O)O)O3)ccc(C(C)=O)c1O |
| 86 to 87 | Cc1cc(C)n(Cc2ccc(OCc3nc(-c4ccccc4)oc3C)cc2)n1 |
| 265 to 270 | NC(=O)N1c2ccccc2C(Cl)=C(Cl)c2ccccc21 |
| 77 to 79 | CNc1cnn(-c2cccnc2)c1Br |
| 103 to 104 | Cc1ccccc1SC(NC=O)c1sccc1C (stereo unspecified) |
| 120 to 122 | O=C1CCC(Cc2ccc3ccccc3c2)=C1O |
| 146 to 148 | Cc1ccc(C2COc3cc(O)ccc3C2c2ccc(OCCN3CCCCC3)cc2)cc1 (stereo unspecified) |
| 205 to 206 | O=c1ccn(-c2ccc(N3CCOCC3)cc2)nc1-c1ccnn1-c1ccccc1 |
| 90 to 92 | O=C(Nc1ccc(N2CCSC2)c(F)c1)OCc1ccccc1 |
| 92 | CC(=O)OC1CSC(Oc2cccc(-c3cnccn3)c2)C(OC(C)=O)C1OC(C)=O (stereo unspecified) |
| 132 to 135 | CC(COc1ccc2c(c1)CCCC2=O)n1ccnc1 (stereo unspecified) |
| 211 to 212 | CN1CCN(c2cccc3c2C[C@H](NC(=O)c2ccc(N4CCN(CCO)CC4)cc2)CO3)CC1 |
| 96 to 98 | CC(=O)NCC1CC1c1cccc2nc(C)sc12 (stereo unspecified) |
| 204 to 205 | N#Cc1cccc(NC(=O)Nc2ccc(-n3nc(C(F)(F)F)cc3C(F)(F)F)cc2)c1 |
| 143 to 146 | N#Cc1cc(-c2ccoc2)c2ccc(Sc3cccc(-c4ccccc4)n3)cc2c1 |

| melting point [°C] | SMILES |
| --- | --- |
| 160 | O=C1CCC(c2cccc(Cl)c2)(c2cccc(Cl)c2)[C@@H]2CN(C(=O)Cc3ccccc3)C[C@H]12 (racemic) |
| 177 to 178 | Cc1cccc(C)c1CNc1cc(C(=O)N(C)CCO)cc2c1nc(C)n2C |
| 191 to 194 | COc1ccc(-c2cc(=O)c3c(OC)c(I)c(OC)cc3o2)cc1 |
| 123 | CCCCCC(O)C1C(=O)NC(C(=O)SCc2ccccc2)(C(O)C2C=CCCC2)C1(C)O (stereo unspecified) |
| 112 to 113 | COC=C1CCC(C#N)(c2ccc(OC)c3c2OCCO3)CC1 (stereo unspecified) |
| 219 to 220 | COC(=O)c1ccc(-c2nc(O)c(C)s2)cc1 |
| 212 to 213 | Cc1ccc(-c2ccc3c(c2)C=C(C(=O)Nc2ccc(C(O)CN4CCCCC4)cc2)CCO3)cc1 (stereo unspecified) |
| 250 to 251 | CC(C)[C@@H]1NC(=O)OC1(c1ccccc1)c1ccccc1 |
| 212 to 214 | COc1cc(Nc2nccc(-c3sc(N4C=CC=NC4)nc3C)n2)ccc1N1CCOCC1 |
| 179 to 180 | Nc1cccc(C2NC(=O)Cc3ccccc32)c1 (stereo unspecified) |
| 107 to 109 | CCCSc1ncnc2c(N3CCCCC3)nc(Cl)nc12 |
| 114 | Cc1cc(C)cc(NC(=O)CO)c1 |
| 110 to 114 | CCC(=O)C1=C(O)CC(c2ccc(Oc3cccc(S(C)(=O)=O)c3)cc2)CC1=O (stereo unspecified) |
| > 320 | O=c1[nH]c2sc3ccc(C(F)(F)F)cc3c2[nH]c1=O |
| > 300 | O=C(O)c1cc2c(Cl)ccc(Br)c2s1 |
| 211 | CC(C)(C)C(O)CN1CCC(CCC(=O)c2cc(Cl)c(N)[nH]c2=O)CC1 (stereo unspecified) |
| 140 to 142 | COCC(C)(C)C(=O)O[C@H]1C[C@H](O)C=C2C=C[C@H](C)[C@H](CC[C@@H]3C[C@@H](O)CC(=O)O3)[C@H]21 |
| 163 | Cc1cc(C)cc(C23SCCN2C(=O)c2ccccc23)c1 (stereo unspecified) |
| 145 to 147 | Cc1c(-c2ccccc2)oc2c(CO)cccc2c1=O |
| 232 to 233 | O=C(C=Cc1ccc(-c2nnn[nH]2)cc1)N1CCc2c([nH]c3ccccc23)C1c1ccc2c(c1)OCO2 (stereo unspecified) |
| 37 to 38 | CC1Cc2ccccc2N1N (stereo unspecified) |
| 63 to 64 | C#CCCCC(=O)c1cc(C)c(O)c(C(C)(C)C)c1 |

| SMILES | melting point [°C] |
| --- | --- |
| CCn1nc(C)c2nc(C)nc(N3CC3)c21 | 66 to 69 |
| O=C1NCCN1CCN1CC=C(c2cn(-c3ccc(F)cc3)c3ccc(C(F)(F)F)cc23)CC1 | 200 |
| CN(C)C1CCc2[nH]c3c(C(N)=O)cccc3c2C1 (stereo unspecified) | 252 to 254 |
| CC1(CBr)SC2C(NC(=O)COc3ccccc3)C(=O)N2C1C(=O)O (stereo unspecified) | 164 to 166 |
